Data from the NIST ThermoML archive (doi:10.1021/je700523b).
± gives the expanded uncertainty stated by the source.

Test: wn = mass fraction of the nth substance listed
Details: 298.15 K; for surface tension liquid-gas: Pendant drop shape; for mass density / viscosity: 101 kPa, Liquid; for mass density: Vibrating tube method

CCOS(=O)(=O)[O-].CCn1cc[n+](C)c1 [1-ethyl-3-methylimidazolium ethyl sulfate] + O
Details | mass density [kg/m3] | surface tension liquid-gas [mN/m] | viscosity [mPa·s]
w2 = 0.000475 | 1236.26 ± 8.3 | 47 ± 1.2 | 91.85 ± 45
w2 = 0.00754 | 1234.51 ± 8.2 | 47.23 ± 1.2 | 83.6 ± 35
w2 = 0.0144 | 1233.93 ± 8.1 | 48.01 ± 1.3 | 70.21 ± 19
w2 = 0.02531 | 1231.35 ± 7.8 | 48.08 ± 1.3 | 65.61 ± 14
w2 = 0.03047 | 1230 ± 7.7 | 48.09 ± 1.2 | 55.78 ± 5.1
w2 = 0.03849 | 1227.15 ± 7.6 | 47.93 ± 1.2 | 41.85 ± 7.8
w2 = 0.04185 | 1228.01 ± 7.5 | 48.14 ± 1.2 | 33.3 ± 6.2
w2 = 0.05643 | 1226.3 ± 7.3 | 47.95 ± 1.2 | 30.63 ± 5.7
w2 = 0.06937 | 1222.45 ± 7 | 48.25 ± 1.2 | 24.8 ± 4.6
w2 = 0.07519 | 1219.51 ± 6.9 | 48.97 ± 1.2 | 23.63 ± 4.4
w2 = 0.09292 | 1215.44 ± 6.6 | 49.35 ± 1.2 | 17.41 ± 3.3
w2 = 0.09493 | 1214.98 ± 6.6 | 50.11 ± 1.2 | 14.73 ± 2.8
